{"source": "paper PMC6199279", "about": "“Design of Peptoid-peptide Macrocycles to Inhibit the β-catenin TCF Interaction in Prostate Cancer” (Nature Communications, 2018)", "key": {"[1]": {"target": "β-catenin:TCF4 interaction (Homo sapiens, UniProt P35222)", "sequence (P35222 134-668)": "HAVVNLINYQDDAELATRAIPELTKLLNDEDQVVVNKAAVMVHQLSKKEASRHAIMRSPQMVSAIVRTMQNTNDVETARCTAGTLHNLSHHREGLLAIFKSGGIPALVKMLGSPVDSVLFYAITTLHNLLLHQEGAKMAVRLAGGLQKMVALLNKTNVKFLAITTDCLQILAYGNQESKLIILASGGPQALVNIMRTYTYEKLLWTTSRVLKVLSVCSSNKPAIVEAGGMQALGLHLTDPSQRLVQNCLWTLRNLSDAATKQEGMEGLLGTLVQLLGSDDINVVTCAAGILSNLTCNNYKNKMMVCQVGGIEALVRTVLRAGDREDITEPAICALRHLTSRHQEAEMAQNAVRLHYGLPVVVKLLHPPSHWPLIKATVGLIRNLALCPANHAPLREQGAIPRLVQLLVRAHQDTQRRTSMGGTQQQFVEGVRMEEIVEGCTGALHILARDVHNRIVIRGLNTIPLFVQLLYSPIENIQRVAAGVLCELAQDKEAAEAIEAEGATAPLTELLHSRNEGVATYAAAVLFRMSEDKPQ", "assay": "biochemical", "procedure": "We next characterized the dose response curves for compound 13 in the Wnt and AR luciferase reporters. The linear version of 13 (linear 13: NH2-|N-mpp, N-dmp, N-ipp, N-Smpe, N-Smpe, D-Ala|-OH) was used as a control compound. […] To test direct binding, we pre-formed dynamic light scattering (DLS) with β-catenin in the presence of vehicle, compound 13, and α-cyclodextrin. […] HEK293 cells were transiently transfected with a plasmid expressing full length, myc-tagged TCF4. After 48 h treatment with either vehicle (DMSO) or 10 µM 13, cells were lysed and myc-TCF4 protein was immunoprecipitated."}, "[2]": {"test_system": "A549 (lung adenocarcinoma) cells", "assay": "2D proliferation (CellTiter-Fluor viability), A549", "assay_type": "cell-based", "conditions": "Wnt-independent cell line, 5 days"}}, "note": "Numbered stars: 1 amine (or outer) side, 2 acyl side, 3 side chain; on linkers, the order of the positions; unused ones are H or OH. Square brackets hold non-standard residues; d marks the D form. Peptide text beside a SMILES is read from it. N(2-(2-PhOPh)Et)Gly = O=C(O)CNCCc1ccccc1Oc1ccccc1; Gly(N-3,5-(OMe)2-Ph) = COc1cc(NCC(=O)O)cc(OC)c1; X1 = COc1ccc([C@H](C)N(CC(=O)[*:2])[*:1])cc1; N((CH2)3OiPr)Gly = CC(C)OCCCNCC(=O)O"}
{"smiles": "COc1ccc([C@H](C)N2CC(=O)N[C@H](C)C(=O)N(CCc3ccccc3Oc3ccccc3)CC(=O)N(c3cc(OC)cc(OC)c3)CC(=O)N(CCCOC(C)C)CC(=O)N([C@@H](C)c3ccc(OC)cc3)CC2=O)cc1", "note": "[Compound 13] (cyclo([dA][N(2-(2-PhOPh)Et)Gly][Gly(N-3,5-(OMe)2-Ph)][N((CH2)3OiPr)Gly][X1][X1]))", "values": [{"measurement": "IC50", "setting": "[1]", "result": 5.44, "unit": "µM"}, {"measurement": "Effect on proliferation of A549 cells", "setting": "[2]", "result": "no effect"}]}
